Structures are written as SMILES. pIC50: −log10 of the molar value. Read-outs that look alike come from different tables or passages of the source.

A short description of data set [1]: Toxicity study (MTD) in normal mice. Conditions: single i.p. injection; C3H female normal mice; checked daily for 40 days (MTD40).
The test system of data set [2] is HCT116 Human Colon Cancer Cells. As to the kind of experiment: Colony formation assay, HCT116. It counts as cell-based. The method, then: (§1) Cancer cells were plated in 60 mm Petri dishes containing 2.7 ml of medium (modified McCoy's 5a medium containing 10% fetal bovine serum and 100 units/ml penicillin and 100 ug/ml streptomycin). The cells were incubated in a CO2 incubator at 37 degree C. for 5 hours for attachment to the bottom of Petri dishes. Drugs were made up fresh in medium at ten times the final concentration, and then 0.3 ml of this stock solution was added to the 2.7 ml of medium in the dish. The cells were then incubated with drugs for 72 hours at 37 degree C. At the end of incubation the drug-containing media were decanted, the dishes were rinsed with 4 ml of Hank's Balance Salt Solution (HBSS), 5 ml of fresh medium was added, and the dishes were returned to the incubator for colony formation. The cell colonies were counted using colony counter after incubation for 7 days (HCT116 cell line), 14 days (VM46 cell line) and 15 days (H23 cell line). Cell survival (%) was calculated from 3 repeated dishes for each drug concentration and the mean values of IC50 (the drug concentration producing 50% inhibition of colony formation) were determined for each tested compound.

For data set [3], the system named is VM46 Human Colon Cancer Cells Overexpressing Multi-drug Resistant Gene 1. The data set can be described thus: Colony formation assay, VM46. It counts as cell-based. The note with it: read-out: IC50 (VM46). The method, then: as §1
Data set [4] deals with H23 Human Non-small Cell Lung Cancer Cells. As to the kind of experiment: Colony formation assay, H23. It is filed as cell-based. Conditions: read-out: IC50 (H23). The method, then:
as §1

Data set [5] is described as follows: in vivo. Conditions: female, C3H, mouse, ip.
In data set [6] the test system is COLO205 human colon cancer xenograft. As to the kind of experiment: Subcutaneous COLO205 human colon cancer xenograft model. It is filed as in vivo, Mus Musculus. The method, then:
Each mouse was inoculated subcutaneously with 5×10^6 COLO205 tumor cells in 0.1 ml PBS for tumor development. Treatments were started when the tumor volume reached 120 mm^3. […] Body weight and tumor volume were measured twice a week.
On the technique in general: In xenograft studies the graft and the host belong to different species.

The test system of data set [7] is HCT116 human colon cancer xenograft. The data set can be described thus: Subcutaneous HCT116 human colon cancer xenograft model. It is filed as in vivo, Mus Musculus. Conditions: for TGI: HCT116, day 29. The method, then:
Each mouse was inoculated subcutaneously with 5×10^6 HCT116 tumor cells in 0.1 ml PBS for tumor development. Treatments were started when the tumor volume reached 100 mm^3. […] Body weight and tumor volume were measured twice a week.

For data set [8], the system named is HCT116 human colon cancer xenografts. The data set can be described thus: Preliminary in vivo efficacy, HCT116 xenografts in nude mice. Conditions: single i.p. injection at i.p. MTD doses. Set-up: species or system nude mice (nu/nu genotype). The method, then:
In vivo anticancer efficacy study was performed on nude mice (nu/nu genotype) bearing HCT116 human colon cancer xenografts. These human tumors grew exponentially following implantation into the flanks of the mice and reached an average tumor volume of 79.85 cu. mm. Treatment was initiated at that time, with the first day of treatment designated as day 0 for all calculations and plots. The 6 mice were injected i.p. with each of four Neovia drug solutions (5% alcohol, 5% Cremophor EL, and 90% saline, 0.5 ml/20 g, single injection). Drug doses (i.p. MTD doses) were 120 mg/kg for Neovia-1, 300 mg/kg for Neovia-2, 120 mg/kg for Neovia-3, and 180 mg/kg for Neovia-4. Control group of mice was treated with vehicle alone. After treatment, tumor sizes were measured by caliper every other day. The measurement of the tumor diameters (d1, d2) in two orthogonal directions was used to calculate the tumor volume (tumor volume=π/6 {(d1+d2)/2}3) using the approximation that the tumors are spherical. Each tumor growth curve for each mouse was plotted. The time (days) required to grow the tumor to the size of 800 cu. mm after various treatments was calculated as tumor growth delay indexes for evaluating the treatment effects. Survival times after treatment was also observed and recorded.

Data set [9] can be described thus: Rat MTD study. It counts as in vivo, Sprague-Dawley rats. The method, then:
In the rat MTD study, Sprague-Dawley rats were dosed with 801 HCl at a concentration of 6 mg/ml via intravenous infusion or slow intravenous injection. The MTD of 801 in normal rats was 120 mg/kg/day. In the 7-day repeating dose study, the rats were administered with […] via BID slow IV injection for 7 days.

The nature of data set [10]: Toxicity studies in Cynomolgus monkeys (MTD). It is filed as in vivo.
Data set [11] deals with K562 human chronic myeloid leukemia xenograft. The data set can be described thus: Subcutaneous K562 human chronic myeloid leukemia xenograft model.
The mark [12] stands for this setting: Homo sapiens, HCT-116, drugs 72 hours, colonies counted after 7 days, read-out: IC50 (HCT116).
The mark [13] stands for this setting: Homo sapiens, drugs 72 hours, colonies counted after 14 days.
Setting [14] is: Homo sapiens, drugs 72 hours, colonies counted after 15 days.

Turning to `CCc1c2c(nc3ccc(O)c(CN(C)C)c13)-c1cc3c(c(=O)n1C2)COC(=O)C3(CC)OC(=O)COc1ccc(C(=O)OC2c3cc4c(cc3C(c3cc(OC)c(OC)c(OC)c3)C3C(=O)OCC23)OCO4)cc1.Cl` (centres unmarked) [N4 HCL Salt], the “MTD Values” in [1] is 180 mg/kg.

Usually pIC50 stands for −log10 of the IC50, conventionally taken in molar units. For the compound `CCc1c2c(nc3ccc(OC(=O)N4CCC(N5CCCCC5)CC4)cc13)-c1cc3c(c(=O)n1C2)COC(=O)C3(CC)OC(=O)COc1ccc(C(=O)OC2c3cc4c(cc3C(c3cc(OC)c(OC)c(OC)c3)[C@H]3C(=O)OC[C@@H]23)OCO4)cc1` (some centres unmarked) [Compound N3], the negative-log IC50 (pIC50) was 6.55 in data set [2] (Homo sapiens, HCT-116, read-out: IC50 (HCT116)); 6.52 in [3] (Homo sapiens); 6.70 in [4] (Homo sapiens).

For `CCC1(OC(=O)COc2ccc(C(=O)OC3c4cc5c(cc4C(c4cc(OC)c(OC)c(OC)c4)C4C(=O)OCC34)OCO5)cc2)C(=O)OCc2c1cc1n(c2=O)Cc2cc3c(CN(C)C)c(O)ccc3nc2-1.Cl` (centres unmarked) [N1 HCL Salt], the “MTD Values” in data set [1] amounted to 120 mg/kg.

As to `CCc1c2c(nc3ccc(O)c(CN(C)C)c13)-c1cc3c(c(=O)n1C2)COC(=O)C3(CC)OC(=O)COc1ccc(C(=O)OC2c3cc4c(cc3C(c3cc(OC)c(OC)c(OC)c3)[C@H]3C(=O)OC[C@@H]23)OCO4)cc1` (some centres unmarked) [Compound N4], the negative logarithm of the IC50 (pIC50) was 8.18 in data set [2] (setting [12]), 8.30 in data set [3] (setting [13]) and 7.89 in [4] (setting [14]). The compound also came in with an MTD in data set [5] of 250 mg/kg.

Turning to `CCC1(OC(=O)COc2ccc(C(=O)OC3c4cc5c(cc4C(c4cc(OC)c(OC)c(OC)c4)[C@H]4C(=O)OC[C@@H]34)OCO5)cc2)C(=O)OCc2c1cc1n(c2=O)Cc2cc3c(CN(C)C)c(O)ccc3nc2-1` (some centres unmarked) [Compound N1], the pIC50 in data set [2] (setting [12]) is 7.62; in data set [3] (setting [13]) it was 8.10; in data set [4] (setting [14]) it was 8.15.

Take `CCc1c2c(nc3ccc(OC(=O)N4CCC(N5CCCCC5)CC4)cc13)-c1cc3c(c(=O)n1C2)COC(=O)C3(CC)OC(=O)COc1ccc(C(=O)OC2c3cc4c(cc3C(c3cc(OC)c(OC)c(OC)c3)C3C(=O)OCC23)OCO4)cc1.Cl` (centres unmarked) [N3 HCL Salt]: the “MTD Values” in [1] was 144 mg/kg.

As a reminder, the TGI is the reduction of tumour growth relative to the control group. As to `CCc1c2c(nc3ccc(OC(=O)N4CCC(N5CCCCC5)CC4)cc13)-c1cc3c(c(=O)n1C2)COC(=O)[C@]3(O)CC` [Irinotecan], the tumour growth inhibition (TGI) in data set [6] (70 mg/kg i.p. q3d x 3, day 29) stood at 97%; in data set [7] (70 mg/kg i.p. q3d x 3), 92%. Moreover, the body weight loss in data set [7] (HCT116 model, during the treatment period) is given as 8%.

`CCC1(OC(=O)COc2ccc(C(=O)OC3c4cc5c(cc4C(c4cc(OC)c(OC)c(OC)c4)C4C(=O)OCC34)OCO5)cc2)C(=O)OCc2c1cc1n(c2=O)Cc2cc3cc(OC(=O)N4CCC(N5CCCCC5)CC4)ccc3nc2-1` (centres unmarked) [Compound N2]: the negative-log IC50 (pIC50) was less than 6.30 in [2] (drugs 72 hours, colonies counted after 7 days, read-out: IC50 (HCT116)); approximately 6.28 in data set [3] (drugs 72 hours, colonies counted after 14 days); 6.34 in data set [4] (drugs 72 hours, colonies counted after 15 days). Further, in data set [8], the “inhibiting the growth of HCT116 human colon cancer xenografts” value is listed as “most promising candidate drug against HCT116 human colon cancer among all 4 compounds”. For the same compound, the “MTD for repeating dosing” value in data set [9] (rats, BID slow IV injection for 7 days) amounted to 60 mg/kg/day. Moreover, the “MTD Values” in data set [1] turned out to be 300 mg/kg.

Take `CCC1(OC(=O)COc2ccc(C(=O)OC3c4cc5c(cc4C(c4cc(OC)c(OC)c(OC)c4)C4C(=O)OCC34)OCO5)cc2)C(=O)OCc2c1cc1n(c2=O)Cc2cc3cc(OC(=O)N4CCC(N5CCCCC5)CC4)ccc3nc2-1.Cl` (centres unmarked) [Compound 801-HCl]: the TGI amounted to 70% in data set [6] (125 mg/kg i.p. q3d x 3, day 29) and 93% in data set [7] (125 mg/kg i.p. q3d x 3). Also, the “MTD for repeating dosing” value in [10] (5-day repeat dose, intravenous infusion) stood at 30 mg/kg/day. For the same compound, the MTD in data set [10] (intravenous infusion twice daily with a 5-hour interval) was 60 mg/kg/day; in data set [9] (normal Sprague-Dawley rats, 6 mg/ml via intravenous infusion or slow intravenous injection), 120 mg/kg/day. The “MTD Values” in data set [1] is on record as 300 mg/kg. Also, the “Mean Tumor Volume” value in data set [11] (300 mg/kg ip Days 8, 11, 14, Day 8) is reported as 159 ± 16 mm^3; in [11] (300 mg/kg ip Days 8, 11, 14, Day 11), 221 ± 27 mm^3; in data set [11] (300 mg/kg ip Days 8, 11, 14, Day 14) it was 164 ± 16 mm^3; in data set [11] (300 mg/kg ip Days 8, 11, 14, Day 18), 47 ± 7 mm^3; in [11] (300 mg/kg ip Days 8, 11, 14, Day 21), 39 ± 6 mm^3; in [11] (300 mg/kg ip Days 8, 11, 14, Day 25) it was 74 ± 12 mm^3. Also, the “Mean Tumor Volume” value in [11] (300 mg/kg ip Days 8, 11, 14, Day 28) was 95 ± 19 mm^3. Moreover, the “maximum BW loss” value in data set [11] (300 mg/kg ip, next day after the 2nd dosing) turned out to be 7.7%. Further, the “TGI (Day 25)” value in data set [11] (K562, 300 mg/kg ip Days 8, 11, 14) worked out at 98%. Besides, the “CR ratio (ratio of complete regression)” value in data set [11] (K562, 300 mg/kg ip Days 8, 11, 14, by Day 21) was 3/8.

Values taken from patent US10087194B2, “Podophyllotoxin derivatives and their use” (California Pacific Medical Center, priority 2015, dated 2018).
